Here are results for 23 molecules from patent publication US8324390B2, “Tetrazole-substituted anthranilamides as pesticides” (Bayer CropScience AG, priority 2008, dated 2012).

For orientation: chromatographic logP means lipophilicity estimated from chromatographic retention. High values mean higher lipophilicity, low ones lower lipophilicity.

Series [1] is described as follows: log P determination by HPLC (EEC Directive 79/831 Annex V.A8). The series is classed as physicochemical. The settings on record: log P. As for the experimental part:
The measurements were carried out using an Agilent 1100 LC system with a 50*4.6 Zorbax Eclipse C18 1.8 μm column (oven temperature 55° C., flow rate 2.0 ml/min).
The following mobile phases were used:
Mobile phase A: acetonitrile+1000 μl of formic acid/l
Mobile phase B: Millipore water+900 μl of formic acid/l

Series [2] relates to larvae of the mustard beetle (Phaedon cochleariae). Description: Phaedon test (PHAECO spray treatment). The settings on record: Phaedon cochleariae, in Brassica rapa, foliar, read-out: effect in % (beetle larvae killed).
Series [3] relates to caterpillars of the armyworm (Spodoptera frugiperda). Nature of the series: Spodoptera frugiperda test (SPODFR spray treatment). The series is classed as in vivo. The settings on record: Spodoptera frugiperda, in Zea mays, foliar, read-out: effect in % (caterpillars killed). From the text:
(§1) Solvent: 78.0 parts by weight of acetone

Series [4] relates to green peach aphid (Myzus persicae). Nature of the series: Myzus test (MYZUPE spray treatment). To be noted: Myzus persicae, in Brassica rapa, foliar, read-out: effect in % (aphids killed). The series is classed as in vivo.
Description: Solvent: 78 parts by weight of acetone
as §1

Structures are written as SMILES. Bounds are passed on as bounds.

In the case of `CNC(=O)c1cc(Cl)cc(Cl)c1NC(=O)c1cc(Cn2nnc(C(F)(F)F)n2)nn1-c1ncccc1Cl` [Example 54], in series [1], the chromatographic logP turned out to be 2.93. The pest or weed control at 100 g/ha in series [2], in series [3] and in series [4] was at least 80% in each case.

As to `NC(=O)c1cc(Cl)cc(Cl)c1NC(=O)c1cc(Cn2nnc(C(F)(F)F)n2)nn1-c1ncccc1Cl` [Example 55], the chromatographic logP in series [1] stood at 2.72. In addition, the pest or weed control at 100 g/ha in series [2], in series [3] and in series [4] was at least 80% throughout.

Molecule `N#CCNC(=O)c1cc(Cl)cc(Cl)c1NC(=O)c1cc(Cn2nnc(C(F)(F)F)n2)nn1-c1ncccc1Cl` [Example 59] displayed a chromatographic logP in series [1] of 2.92. The pest or weed control at 100 g/ha in series [2], in series [3] and in series [4] was at least 80% in each case.

Molecule `CC(C)(C)NC(=O)c1cc(Cl)cc(Cl)c1NC(=O)c1cc(Cn2nnc(C(F)(F)F)n2)nn1-c1ncccc1Cl` [Example 60] yielded a chromatographic logP in series [1] of 3.78. Moreover, the pest or weed control at 100 g/ha in series [2], in series [3] and in series [4] was at least 80% in each case.

`CSC[C@H](C)NC(=O)c1cc(Cl)cc(Cl)c1NC(=O)c1cc(Cn2nnc(C(F)(F)F)n2)nn1-c1ncccc1Cl` [Example 64]: in series [1], the chromatographic logP was 3.62. For the same molecule, the pest or weed control at 100 g/ha in series [2], in series [3] and in series [4] was at least 80% each time.

In the case of `CNC(=O)c1cc(I)cc(C)c1NC(=O)c1cc(Cn2nnc(C(F)(F)F)n2)nn1-c1ncccc1Cl` [Example 65], the chromatographic logP in series [1] worked out at 3.21. Moreover, the pest or weed control at 100 g/ha in series [2], in series [3] and in series [4] was at least 80% each time.

Molecule `Cc1cc(I)cc(C(N)=O)c1NC(=O)c1cc(Cn2nnc(C(F)(F)F)n2)nn1-c1ncccc1Cl` [Example 67] registered a chromatographic logP in series [1] of 2.95. Also, the pest or weed control at 100 g/ha in series [2], in series [3] and in series [4] was at least 80% in each case.

Molecule `Cc1cc(I)cc(C(=O)NCC#N)c1NC(=O)c1cc(Cn2nnc(C(F)(F)F)n2)nn1-c1ncccc1Cl` [Example 70] returned a chromatographic logP in series [1] of 3.14. Moreover, the pest or weed control at 100 g/ha in series [2], in series [3] and in series [4] was at least 80% throughout.

Consider `CSC[C@H](C)NC(=O)c1cc(I)cc(C)c1NC(=O)c1cc(Cn2nnc(C(F)(F)F)n2)nn1-c1ncccc1Cl` [Example 74], for which the chromatographic logP in series [1] worked out at 3.9. In addition, the pest or weed control at 100 g/ha in series [2], in series [3] and in series [4] was at least 80% each time.

The molecule `Cc1cc(C#N)cc(C(=O)N[C@@H]2C[C@H]2CO)c1NC(=O)c1cc(Cn2nnc(C(F)(F)F)n2)nn1-c1ncccc1Cl` [Example 76] displayed a chromatographic logP in series [1] of 2.39. Also, the pest or weed control at 100 g/ha in series [2], in series [3] and in series [4] was at least 80% each time.

`Cc1cc(C#N)cc(C(=O)NCc2ccco2)c1NC(=O)c1cc(Cn2nnc(C(F)(F)F)n2)nn1-c1ncccc1Cl` [Example 77]: in series [1], the chromatographic logP was 3.14. Also, the pest or weed control at 100 g/ha in series [2], in series [3] and in series [4] was at least 80% throughout.

The molecule `CNC(=O)c1cc(C)cc(C)c1NC(=O)c1cc(Cn2nnc(C(F)(F)F)n2)nn1-c1ncccc1Cl` [Example 78] displayed a chromatographic logP in series [1] of 2.81. For the same molecule, the pest or weed control at 100 g/ha in series [2], in series [3] and in series [4] was at least 80% each time.

`CSC[C@H](C)NC(=O)c1cc(C)cc(C)c1NC(=O)c1cc(Cn2nnc(C(F)(F)F)n2)nn1-c1ncccc1Cl` [Example 86] came in with a chromatographic logP in series [1] of 3.5. Also, the pest or weed control at 100 g/ha in series [2], in series [3] and in series [4] was at least 80% each time.

Take `Cc1cc(C#N)cc(C(=O)NC2(C)CCC2)c1NC(=O)c1cc(Cn2nnc(C(F)(F)F)n2)nn1-c1ncccc1Cl` [Example 89]: the chromatographic logP in series [1] came out at 3.46. For the same molecule, the pest or weed control at 100 g/ha in series [2], in series [3] and in series [4] was at least 80% in each case.

In series [1], `Cc1cc(C#N)cc(C(=O)NCC(F)F)c1NC(=O)c1cc(Cn2nnc(C(F)(F)F)n2)nn1-c1ncccc1Cl` [Example 91] registered a chromatographic logP of 2.91. Besides, the pest or weed control at 100 g/ha in series [2], in series [3] and in series [4] was at least 80% in each case.

With `COCCNC(=O)c1cc(C#N)cc(C)c1NC(=O)c1cc(Cn2nnc(C(F)(F)F)n2)nn1-c1ncccc1Cl` [Example 92], in series [1], the chromatographic logP was determined as 2.73. The pest or weed control at 100 g/ha in series [2], in series [3] and in series [4] was at least 80% each time.

With `COC(C)(C)CNC(=O)c1cc(C#N)cc(C)c1NC(=O)c1cc(Cn2nnc(C(F)(F)F)n2)nn1-c1ncccc1Cl` [Example 95], the chromatographic logP in series [1] amounted to 3.12. Further, the pest or weed control at 100 g/ha in series [2], in series [3] and in series [4] was at least 80% throughout.

In turn, `C#CCNC(=O)c1cc(C#N)cc(C)c1NC(=O)c1cc(Cn2nnc(C(F)(F)F)n2)nn1-c1ncccc1Cl` [Example 96] displayed a chromatographic logP in series [1] of 2.9. Further, the pest or weed control at 100 g/ha in series [2], in series [3] and in series [4] was at least 80% throughout.

In series [1], `CCC(C)NC(=O)c1cc(C#N)cc(C)c1NC(=O)c1cc(Cn2nnc(C(F)(F)F)n2)nn1-c1ncccc1Cl` (centres unmarked) [Example 97] came in with a chromatographic logP of 3.32. In addition, the pest or weed control at 100 g/ha in series [2] and in series [3] was at least 80% each time. Besides, the pest or weed control at 20 g/ha in series [4] was at least 80%.

For the molecule `COCC(C)NC(=O)c1cc(C#N)cc(C)c1NC(=O)c1cc(Cn2nnc(C(F)(F)F)n2)nn1-c1ncccc1Cl` (centres unmarked) [Example 98], in series [1], the chromatographic logP worked out at 2.95. Besides, the pest or weed control at 100 g/ha in series [2], in series [3] and in series [4] was at least 80% each time.

In turn, `CNC(=O)c1cc(C#N)cc(C)c1NC(=O)c1cc(Cn2nnc(C3CC3)n2)nn1-c1ncccc1Cl` [Example 102] yielded a chromatographic logP in series [1] of 2.15. Besides, the pest or weed control at 100 g/ha in series [2], in series [3] and in series [4] was at least 80% in each case.

In series [1], `CNC(=O)c1cc(Cl)cc(C)c1NC(=O)c1cc(Cn2nnc(C3CC3)n2)nn1-c1ncccc1Cl` [Example 104] returned a chromatographic logP of 2.52. Also, the pest or weed control at 100 g/ha in series [2], in series [3] and in series [4] was at least 80% each time.

The molecule `Cc1cc(C#N)cc(C(=O)NC(C)(C)C)c1NC(=O)c1cc(Cn2nnc(C3CC3)n2)nn1-c1ncccc1Cl` [Example 105] registered a chromatographic logP in series [1] of 2.93. The pest or weed control at 100 g/ha in series [2], in series [3] and in series [4] was at least 80% each time.
